Measurements reported in patent US20240190849A1, “AMINOPYRIMIDINE COMPOUNDS AND METHODS OF THEIR USE” (TYRA BIOSCIENCES, INC., priority 2021, published 2024).

Assays:
Conditions in all cases: FGFR binding data
FGFR1 = molecular target: T1, FGFR1 (Homo sapiens, UniProt P11362); test: Kinase binding assay (kinase-tagged T7 phage, affinity beads, qPCR readout), FGFR1
T1 construct: made in house; host or cells: E. coli derived from BL21, infected with T7 phage
Protocol: (§1) Kinase-tagged T7 phage strains were prepared in an E. coli host derived from the BL21 strain. E. coli were grown to log-phase and infected with T7 phage and incubated with shaking at 32° C. until lysis. The lysates were centrifuged and filtered to remove cell debris. Streptavidin-coated magnetic beads were treated with biotinylated small molecule ligands for 30 minutes at room temperature to generate affinity resins for kinase assays. The liganded beads were blocked with excess biotin and washed with blocking buffer SeaBlock (Pierce), 1% BSA, 0.05% Tween 20, 1 mM DTT to remove unbound ligand and to reduce non-specific binding. Binding reactions were assembled by combining kinases, liganded affinity beads, and test compounds in 1× binding buffer (20% SeaBlock, 0.17×PBS, 0.05% Tween 20, 6 mM DTT).
(§2) Test compounds were prepared as 111× stocks in 100% DMSO. Kds were determined using an 11-point 3-fold compound dilution series with three DMSO control points. All compounds for Kd measurements are distributed by acoustic transfer (non-contact dispensing) in 100% DMSO. The compounds were then diluted directly into the assays such that the final concentration of DMSO was 0.9%. All reactions performed in polypropylene 384-well plate. Each was a final volume of 0.02 ml. The assay plates were incubated at room temperature with shaking for 1 hour and the affinity beads were washed with wash buffer (1×PBS, 0.05% Tween 20). The beads were then re-suspended in elution buffer (1×PBS, 0.05% Tween 20, 0.5 μM non-biotinylated affinity ligand) and incubated at room temperature with shaking for 30 minutes. The kinase concentration in the eluates was measured by qPCR.
(§3) Binding constants were calculated with a standard dose-response curve using the Hill equation: […]
(§4) The Hill Slope was set to −1. Curves were fitted using a non-linear least square fit with the Levenberg-Marquardt algorithm.

FGFR2 = molecular target: T2, FGFR2 (Homo sapiens, UniProt P21802); test: Kinase binding assay (kinase-tagged T7 phage, affinity beads, qPCR readout), FGFR2
T2 construct: made in house; host or cells: E. coli derived from BL21, infected with T7 phage
T2 sequence (P21802 22-821): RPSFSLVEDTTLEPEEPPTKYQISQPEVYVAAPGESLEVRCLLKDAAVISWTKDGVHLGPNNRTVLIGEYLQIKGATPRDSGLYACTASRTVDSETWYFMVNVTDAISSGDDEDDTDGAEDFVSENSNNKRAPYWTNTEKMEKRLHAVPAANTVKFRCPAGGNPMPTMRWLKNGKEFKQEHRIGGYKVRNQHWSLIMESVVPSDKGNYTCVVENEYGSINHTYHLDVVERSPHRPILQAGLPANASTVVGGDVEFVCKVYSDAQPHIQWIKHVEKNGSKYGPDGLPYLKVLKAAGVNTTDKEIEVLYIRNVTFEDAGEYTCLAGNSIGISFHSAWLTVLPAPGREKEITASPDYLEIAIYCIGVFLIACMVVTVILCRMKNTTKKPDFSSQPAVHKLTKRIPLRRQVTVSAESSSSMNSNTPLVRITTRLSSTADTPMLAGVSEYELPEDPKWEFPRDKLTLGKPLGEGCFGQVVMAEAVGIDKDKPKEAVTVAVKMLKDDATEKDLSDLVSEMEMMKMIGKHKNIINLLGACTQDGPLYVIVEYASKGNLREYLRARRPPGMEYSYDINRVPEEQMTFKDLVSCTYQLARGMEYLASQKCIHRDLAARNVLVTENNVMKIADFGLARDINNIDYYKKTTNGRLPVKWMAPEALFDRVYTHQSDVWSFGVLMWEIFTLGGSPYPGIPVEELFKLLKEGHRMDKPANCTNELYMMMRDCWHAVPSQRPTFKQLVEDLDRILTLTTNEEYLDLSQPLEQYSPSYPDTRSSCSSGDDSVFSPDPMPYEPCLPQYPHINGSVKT
Protocol: as §1, §2, §3, §4

FGFR3 = molecular target: T3, FGFR3 (Homo sapiens, UniProt P22607); test: Kinase binding assay (kinase-tagged T7 phage, affinity beads, qPCR readout), FGFR3
T3 construct: made in house; host or cells: E. coli derived from BL21, infected with T7 phage
T3 sequence (P22607 23-806): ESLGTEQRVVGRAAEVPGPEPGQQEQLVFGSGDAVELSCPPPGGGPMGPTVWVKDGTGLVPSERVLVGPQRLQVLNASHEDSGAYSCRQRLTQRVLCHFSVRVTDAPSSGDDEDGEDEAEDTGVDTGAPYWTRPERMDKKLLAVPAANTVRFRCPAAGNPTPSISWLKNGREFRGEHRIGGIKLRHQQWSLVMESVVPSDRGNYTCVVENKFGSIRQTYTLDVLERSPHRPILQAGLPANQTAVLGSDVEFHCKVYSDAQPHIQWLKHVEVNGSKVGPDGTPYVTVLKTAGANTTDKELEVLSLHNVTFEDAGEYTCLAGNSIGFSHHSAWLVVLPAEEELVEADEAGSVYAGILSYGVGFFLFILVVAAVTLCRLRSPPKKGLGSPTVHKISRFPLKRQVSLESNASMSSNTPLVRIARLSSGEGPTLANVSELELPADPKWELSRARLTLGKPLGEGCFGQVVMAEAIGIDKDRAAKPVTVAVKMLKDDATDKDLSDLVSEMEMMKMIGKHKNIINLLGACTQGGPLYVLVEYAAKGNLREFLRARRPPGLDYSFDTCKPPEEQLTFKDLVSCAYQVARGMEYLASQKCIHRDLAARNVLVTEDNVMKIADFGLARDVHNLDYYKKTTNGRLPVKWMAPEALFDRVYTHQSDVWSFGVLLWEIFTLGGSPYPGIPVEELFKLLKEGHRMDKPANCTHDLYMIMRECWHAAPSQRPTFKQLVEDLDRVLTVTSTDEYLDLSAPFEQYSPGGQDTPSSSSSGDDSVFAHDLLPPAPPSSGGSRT
Protocol: as §1, §2, §3, §4

FGFR3 (V555M) = molecular target: T4, FGFR3 (V555M) (Homo sapiens, UniProt P22607, V555M); test: Kinase binding assay (kinase-tagged T7 phage, affinity beads, qPCR readout), FGFR3 (V555M)
T4 construct: made in house; host or cells: E. coli derived from BL21, infected with T7 phage
T4 sequence (P22607 23-806 V555M): as the sequence (P22607 23-806) above, with V533M counted along it
Protocol: as §1, §2, §3, §4

T1 sequence (P11362 22-822): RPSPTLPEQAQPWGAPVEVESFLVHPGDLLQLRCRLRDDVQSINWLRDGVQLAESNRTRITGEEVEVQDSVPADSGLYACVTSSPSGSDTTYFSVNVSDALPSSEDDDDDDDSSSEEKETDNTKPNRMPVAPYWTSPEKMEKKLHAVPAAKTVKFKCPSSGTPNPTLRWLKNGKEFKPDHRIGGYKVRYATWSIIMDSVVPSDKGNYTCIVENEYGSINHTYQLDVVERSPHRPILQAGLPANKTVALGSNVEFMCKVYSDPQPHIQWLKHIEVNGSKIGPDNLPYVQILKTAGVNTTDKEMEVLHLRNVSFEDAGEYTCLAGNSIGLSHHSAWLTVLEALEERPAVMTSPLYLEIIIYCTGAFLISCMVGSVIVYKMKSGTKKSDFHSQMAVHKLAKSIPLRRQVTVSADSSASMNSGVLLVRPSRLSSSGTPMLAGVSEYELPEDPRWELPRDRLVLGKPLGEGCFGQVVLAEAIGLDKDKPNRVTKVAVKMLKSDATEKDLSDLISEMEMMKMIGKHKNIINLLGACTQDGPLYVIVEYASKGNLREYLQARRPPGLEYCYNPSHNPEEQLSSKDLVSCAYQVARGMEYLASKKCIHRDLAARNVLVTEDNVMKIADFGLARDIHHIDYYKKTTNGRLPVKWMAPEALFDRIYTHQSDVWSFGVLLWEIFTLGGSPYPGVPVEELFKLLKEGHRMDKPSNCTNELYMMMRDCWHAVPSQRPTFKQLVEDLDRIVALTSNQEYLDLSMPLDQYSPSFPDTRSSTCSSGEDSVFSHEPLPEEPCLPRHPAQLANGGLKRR

| SMILES | Kd (FGFR1) [nM] | Kd (FGFR2) [nM] | Kd (FGFR3) [nM] | Kd (FGFR3 (V555M)) [nM] |
| --- | --- | --- | --- | --- |
| C=CC(=O)Nc1ccc2c(c1)c(C)cn2-c1ncnc(Nc2cn(C)nc2C)n1 [Example 220, N-[1-[4-[(1,3-dimethylpyrazol-4-yl)amino]-1,3,5-triazin-2-yl]-3-methyl-indol-5-yl]prop-2-enamide] | 250 to 1000 | 250 to 1000 | 100 to 250 | 100 to 250 |
| CC#CC(=O)Nc1ccc2c(-c3nc(Nc4cnn(CCO)c4)ncc3Cl)cn(C)c2c1 [Example 135, N-[3-[5-chloro-2-[[1-(2-hydroxyethyl)pyrazol-4-yl]amino]pyrimidin-4-yl]-1-methyl-indol-6-yl]but-2-ynamide] | 250 to 1000 | 0.1 to 100 | 100 to 250 | 0.1 to 100 |
| C=CC(=O)Nc1ccc2c(-c3nc(Nc4ccc(N5CCN(C)CC5)nc4)ncc3Cl)cn(C)c2c1 [Example 59, N-[3-[5-chloro-2-[[6-(4-methylpiperazin-1-yl)-3-pyridyl]amino]pyrimidin-4-yl]-1-methyl-indol-6-yl]prop-2-enamide] | 0.1 to 100 | 0.1 to 100 | 0.1 to 100 | 0.1 to 100 |
| C=CC(=O)Nc1ccc2c(c1)c(C)cn2-c1ccnc(Nc2cnn(CCO)c2)n1 [Example 137, N-[1-[2-[[1-(2-hydroxyethyl)pyrazol-4-yl]amino]pyrimidin-4-yl]-3-methyl-indol-5-yl]prop-2-enamide] | 0.1 to 100 | 0.1 to 100 | 0.1 to 100 | 0.1 to 100 |
| C=CC(=O)Nc1ccc2c(-c3nc(Nc4ccc(N5CCOCC5)c(OC)c4)ncc3Cl)cn(C)c2c1 [Example 51, N-[3-[5-chloro-2-(3-methoxy-4-morpholino-anilino)pyrimidin-4-yl]-1-methyl-indol-6-yl]prop-2-enamide] | 0.1 to 100 | 0.1 to 100 | 0.1 to 100 | 0.1 to 100 |
| C=CC(=O)Nc1ccc2c(c1)c(C)cn2-c1cc(Nc2cn(C)nc2C)ncn1 [Example 222, N-[1-[6-[(1,3-dimethylpyrazol-4-yl)amino]pyrimidin-4-yl]-3-methyl-indol-5-yl]prop-2-enamide] | > 1000 | > 1000 | > 1000 | > 1000 |
| C=CC(=O)Nc1ccc2c(c1)c(C)cn2-c1nc(Nc2ccccc2OCC)ncc1C#N [Example 39, N-[1-[5-cyano-2-(2-ethoxyanilino)pyrimidin-4-yl]-3-methyl-indol-5-yl]prop-2-enamide] | > 1000 | > 1000 | > 1000 | > 1000 |
| Cc1cnc(Nc2cn(C)nc2C)nc1-n1cc(C)c2cc(NC(=O)/C=C/CN(C)C)cnc21 [Example 200, (E)-4-(dimethylamino)-N-[1-[2-[(1,3-dimethylpyrazol-4-yl)amino]-5-methyl-pyrimidin-4-yl]-3-methyl-pyrrolo[2,3-b]pyridin-5-yl]but-2-enamide] | 0.1 to 100 | 0.1 to 100 | 0.1 to 100 | 0.1 to 100 |
| C=CC(=O)Nc1ccc2c(ccn2-c2nc(Nc3ccc(N4CCOCC4)c(F)c3)ncc2Cl)c1C [Example 17, N-[1-[5-chloro-2-(3-fluoro-4-morpholino-anilino)pyrimidin-4-yl]-4-methyl-indol-5-yl]prop-2-enamide] | 250 to 1000 | 250 to 1000 | 100 to 250 | 0.1 to 100 |
| C=CC(=O)Nc1ccc2c(c1)c(C)cn2-c1nc(Nc2cccc(N3CCN(C)CC3)c2)ncc1Cl [Example 73, N-[1-[5-chloro-2-[3-(4-methylpiperazin-1-yl)anilino]-pyrimidin-4-yl]-3-methyl-indol-5-yl]prop-2-enamide] | 0.1 to 100 | 0.1 to 100 | 0.1 to 100 | 0.1 to 100 |
| C=CC(=O)Nc1ccc2c(c1)c(C)cn2-c1cc(Nc2cn(C)nc2C)nnc1C [Example 209, N-[1-[6-[(1,3-dimethylpyrazol-4-yl)amino]-3-methyl-pyridazin-4-yl]-3-methyl-indol-5-yl]prop-2-enamide] | > 1000 | > 1000 | > 1000 | > 1000 |
| C=CC(=O)Nc1ccc2c(c1)c(C)cn2-c1nc(Nc2ccc(CN3CCOCC3)cc2)ncc1Cl [Example 75, N-[1-[5-chloro-2-[4-(morpholinomethyl)anilino]pyrimidin-4-yl]-3-methyl-indol-5-yl]prop-2-enamide] | 0.1 to 100 | 0.1 to 100 | 0.1 to 100 | 0.1 to 100 |
| C=CC(=O)Nc1ccc2c(-c3ccnc(Nc4ccn(C5CC5)n4)n3)cn(C)c2c1 [Example 112, N-[3-[2-[(1-cyclopropylpyrazol-3-yl)amino]pyrimidin-4-yl]-1-methyl-indol-6-yl]prop-2-enamide] | 100 to 250 | 100 to 250 | 0.1 to 100 | 0.1 to 100 |
| C=CC(=O)Nc1ccc2c(ccn2-c2nc(Nc3ccccc3OCC)ncc2Cl)c1 [Example 20, N-[1-[5-chloro-2-(2-ethoxyanilino)pyrimidin-4-yl]indol-5-yl]prop-2-enamide] | > 1000 | > 1000 | > 1000 | > 1000 |
| C=CC(=O)Nc1ccc2c(ccn2-c2nc(Nc3cccc(OCCN4CCOCC4)c3)ncc2Cl)c1 [Example 6, N-[1-[5-chloro-2-[3-(2-morpholinoethoxy)anilino]pyrimidin-4-yl]indol-5-yl]prop-2-enamide] | 250 to 1000 | 250 to 1000 | 250 to 1000 | 0.1 to 100 |
| C=CC(=O)Nc1ccc2c(c1)c(C)cn2-c1nc(Nc2cn(C)nc2C)nnc1Cl [Example 225, N-[1-[6-chloro-3-[(1,3-dimethylpyrazol-4-yl)amino]-1,2,4-triazin-5-yl]-3-methyl-indol-5-yl]prop-2-enamide] | > 1000 | > 1000 | 250 to 1000 | 250 to 1000 |
| C=CC(=O)Nc1ccc2c(ccn2-c2nc(Nc3ccc(N4CCOCC4)c(F)c3)ncc2Cl)c1 [Example 16, N-[1-[5-chloro-2-(3-fluoro-4-morpholino-anilino)pyrimidin-4-yl]indol-5-yl]prop-2-enamide] | 250 to 1000 | 250 to 1000 | 0.1 to 100 | 0.1 to 100 |
| C=C(F)C(=O)Nc1cnc2c(c1)c(C)cn2-c1nc(Nc2ccn(C)n2)ncc1C [Example 117, 2-fluoro-N-[3-methyl-1-[5-methyl-2-[(1-methylpyrazol-3-yl)amino]pyrimidin-4-yl]pyrrolo[2,3-b]pyridin-5-yl]prop-2-enamide] | > 1000 | > 1000 | > 1000 | > 1000 |
| C=C(C)C(=O)Nc1ccc2c(c1)c(C)cn2-c1nc(Nc2ccnn2C)ncc1C [Example 104, 2-methyl-N-[3-methyl-1-[5-methyl-2-[(2-methylpyrazol-3-yl)amino]pyrimidin-4-yl]indol-5-yl]prop-2-enamide] | > 1000 | > 1000 | > 1000 | > 1000 |
| C=CC(=O)Nc1ccc2c(-c3ccnc(Nc4ccn(CC)n4)n3)cn(C)c2c1 [Example 94, N-[3-[2-[(1-ethylpyrazol-3-yl)amino]pyrimidin-4-yl]-1-methyl-indol-6-yl]prop-2-enamide] | 100 to 250 | 250 to 1000 | 0.1 to 100 | 100 to 250 |
| C=CC(=O)Nc1ccc2c(c1)c(C)cn2-c1nc(Nc2c(C)cccc2OCC)ncc1Cl [Example 29, N-[1-[5-chloro-2-(2-ethoxy-6-methyl-anilino)pyrimidin-4-yl]-3-methyl-indol-5-yl]prop-2-enamide] | > 1000 | > 1000 | > 1000 | > 1000 |
| C=CC(=O)Nc1ccc2c(c1)c(C)cn2-c1nc(Nc2cnn(CCOC(C)C)c2)ncc1F [Example 203, N-[1-[5-fluoro-2-[[1-(2-isopropoxyethyl)pyrazol-4-yl]amino]pyrimidin-4-yl]-3-methyl-indol-5-yl]prop-2-enamide] | 0.1 to 100 | 0.1 to 100 | 0.1 to 100 | 0.1 to 100 |
| C=CC(=O)Nc1ccc2c(c1)c(C)cn2-c1nc(Nc2cnn(CCOCC)c2)ncc1F [Example 193] | 0.1 to 100 | 0.1 to 100 | 0.1 to 100 | 0.1 to 100 |
| C=CC(=O)Nc1cnc2c(c1)c(C)cn2-c1ccnc(Nc2ccn(C)n2)n1 [Example 98, N-[3-methyl-1-[2-[(1-methylpyrazol-3-yl)amino]pyrimidin-4-yl]pyrrolo[2,3-b]pyridin-5-yl]prop-2-enamide] | 0.1 to 100 | 0.1 to 100 | 0.1 to 100 | 0.1 to 100 |
| C=CC(=O)Nc1cc(C)c2c(c1)c(C)cn2-c1nc(Nc2cnn(C)c2)ncc1Cl [Example 71, N-[1-[5-chloro-2-[(1-methylpyrazol-4-yl)amino]pyrimidin-4-yl]-3,7-dimethyl-indol-5-yl]prop-2-enamide] | > 1000 | > 1000 | > 1000 | > 1000 |
